The subject of one series is histamine-induced itch. Nature of the series: Histamine-induced pruritus in mice (scratching bouts). The settings on record: 30 mg/kg i.p. The format is in vivo, BALB/c mice. As to the method: (§1) To investigate the antipruritic effect of berbamine, we observed the effect of berbamine on pruritogen-induced scratching behavior in BALB/c mice. Mice were transferred to clear cages and treated with berbamine intraperitoneally after a 30 min acclimatization period. Mouse behavior was recorded for 30 min right after the subcutaneous injection of pruritogens to the nape 30 min after berbamine treatment (Figure 7A). […] We further investigated the effect of berbamine on pruritus caused by other pruritogens.
(§2) Figure 7 Effect of berbamine on acute pruritogen-induced pruritus in mice: (A) Scheme of acute pruritogen-induced pruritus mouse model. […] Statistical significance of differences between each group and CQ group was assessed using one-way ANOVA with Tukey’s post hoc test. * p < 0.05, ** p < 0.01, *** p < 0.001. […] Statistical significance of differences was determined using Student’s t-test. […]
(§3) […] six-week-old BALB/c male mice were purchased from DBL (Chungcheong-do, Republic of Korea), and an additional 1 week was given for accommodation. […] After 30 min, pruritogen compounds (i.e., CQ, histamine, PAR2-AP, and DCA) were subcutaneously administered into the nape, and scratching bouts were recorded for 30 min. […] The total number of scratching bouts was counted by recording the number of scratching bouts in the recorded video over 30 min of observation time.

The next series relates to DCA-induced itch. Nature of the series: DCA-induced pruritus in mice (scratching bouts). The class given is in vivo, BALB/c mice. The settings on record: 30 mg/kg i.p., DCA 50 μg/50 μL. As to the method: as §1, §2, §3
The subject of series [1] is CQ-sensitive strain of P. falciparum. Also noted: method as in doi:10.1002/ddr.430300405. The settings on record: in vitro; read-out: IC50 antimalaria effect, CQ-sensitive strain; cited from earlier work.
The next series addresses T1, MrgprX1 (Homo sapiens, UniProt Q96LB2).
T1 construct: expressed in transfected cells
Nature of the series: Intracellular calcium measurement (Fluo-4 NW) in HEK293T cells expressing MrgprX1. The format is cell-based. As to the method:
To identify novel antagonists of MrgprX1, a cell-based screening assay was established. […] Cells were treated with the indicated concentrations of CQ where the arrow indicates. (B) Summary of dose-response (mean ± S.E., n = 6). (C) Representative Fluo−4 fluorescence traces of MrgprX1 antagonist screening. Cells were treated with 30 μM of the test compounds for 10 min prior to treatment with 300 μM CQ.
Figure 2 Effect of berbamine and closantel on CQ- and ionomycin-induced increases in intracellular calcium levels: (A,B) Intracellular calcium levels were measured using Fluo−4 NW in HEK293T cells expressing MrgprX1. The cells were pretreated with the indicated concentrations of berbamine (BBM) and closantel (CLS) for 10 min prior to treatment with 300 μM CQ. (C) Summary of dose-response (mean ± S.E., n = 6). […] The cells were pretreated with the indicated concentrations of BBM and CLS for 10 min before treatment with ionomycin. (F) Summary of dose–response (mean ± S.E., n = 6).
Intracellular calcium levels were measured using a Fluo-4 NW calcium assay kit (Invitrogen, Carlsbad, CA) as per the manufacturer’s protocol in HEK293T and HT29 cells. Briefly, the cells were plated in a 96-well black-walled plate and incubated with 100 μL of assay buffer including Fluo-4 NW. […] Intracellular calcium increase was induced with the application of the indicated agonist. All modulators were dissolved in DMSO, and cells were treated with a final concentration of 1% DMSO.
In general terms: Calcium flux is commonly read through the fluorescence of an indicator in the cells.

The target in another series is T2, TGR5 (Homo sapiens, UniProt Q8TDU6).
T2 construct: expressed in transfected cells; host or cells: CHO-K1
T2 sequence (Q8TDU6 1-330): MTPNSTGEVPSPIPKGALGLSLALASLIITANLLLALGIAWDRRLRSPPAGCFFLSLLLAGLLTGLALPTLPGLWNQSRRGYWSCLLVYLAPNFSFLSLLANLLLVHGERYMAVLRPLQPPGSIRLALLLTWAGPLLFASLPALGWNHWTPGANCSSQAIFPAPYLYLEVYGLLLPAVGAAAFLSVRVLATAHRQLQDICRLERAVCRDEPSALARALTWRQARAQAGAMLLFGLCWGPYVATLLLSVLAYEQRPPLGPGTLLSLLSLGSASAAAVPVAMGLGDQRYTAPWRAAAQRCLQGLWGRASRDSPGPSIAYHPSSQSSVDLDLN
Nature of the series: TGR5 activity by YFP fluorescence quenching assay in CHO-K1 cells. The format is cell-based. The settings on record: 30 μM with 80 μM DCA for 10 min. As to the method:
Figure 3 Effects of berbamine on the activity of other pruritogenic GPCRs: (A,B) Effect of berbamine on histamine 1 receptor (H1R) and histamine 4 receptor (H4R). H1R- and H4R-expressing HEK293T cells were pretreated with 30 μM BBM for 10 min prior to 100 μM histamine treatment. […] (C) Effect of berbamine on PAR2. HT29 cells were pretreated with BBM for 10 min prior to 30 μM PAR2-AP treatment. […] (D) Effect of berbamine on MrgprC11. MrgprC11-expressing HEK293T cells were pretreated with BBM for 10 min prior to 100 μM […] treatment. (E) Effect of berbamine on MrgprX4. MrgprX4-expressing HEK293T cells were pretreated with BBM for 10 min prior to 80 μM DCA treatment. (F) Effect of berbamine on TGR5. TGR5 activity was measured using a YFP fluorescence quenching assay. CHO-K1 cells coexpressing TGR5 and a halide sensor YFP were pretreated with BBM and 80 μM DCA for 10 min prior to I^- treatment. Results were summarized as means ± S.E. (n = 6). NTC, nontransfected cells.
All modulators were dissolved in DMSO, and cells were treated with a final concentration of 1% DMSO.

Another series relates to CQ-induced pruritus. Nature of the series: CQ-induced pruritus mouse model (scratching bouts). The format is in vivo, BALB/c mice. The settings on record: 30 mg/kg intraperitoneally, 30 min before s.c. CQ (400 µg/50 µL), 30 min recording. On the procedure:
as §1, §2, §3

On the set-up of series [2]: method as in PMID 29100757. The settings on record: human pharmacokinetic study; cited from earlier work.
Series [3] has as its system CQ-resistant strain of P. falciparum. Also noted: method as in doi:10.1002/ddr.430300405. The settings on record: in vitro, compound alone; read-out: IC50 antimalaria effect, CQ-resistant strain; cited from earlier work.
The subject of series [4] is ERK1/2 phosphorylation through MrgprX1. Nature of the series: Immunoblot of ERK1/2 phosphorylation in HEK293T cells expressing MrgprX1. The format is cell-based, human. The settings on record: HEK-MrgprX1 cells, 10 μM BBM for 10 min prior to CQ.

Where “and” joins values, the source holds several entries; their conditions need not be identical. Identical values can stand only once.

T1 sequence (Q96LB2 whole entry): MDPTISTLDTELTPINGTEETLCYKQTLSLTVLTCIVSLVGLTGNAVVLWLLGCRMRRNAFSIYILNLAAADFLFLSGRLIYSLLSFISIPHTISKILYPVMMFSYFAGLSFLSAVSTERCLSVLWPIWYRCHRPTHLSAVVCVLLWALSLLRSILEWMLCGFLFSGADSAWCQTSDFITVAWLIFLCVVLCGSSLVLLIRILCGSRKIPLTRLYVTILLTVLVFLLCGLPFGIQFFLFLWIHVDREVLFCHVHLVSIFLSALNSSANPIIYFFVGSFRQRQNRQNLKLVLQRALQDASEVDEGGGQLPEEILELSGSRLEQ

As usually defined, the IC50 is the point on the concentration scale where inhibition reaches its midpoint. One may read the inhibition as the drop in the measured response relative to a control, in per cent. By half-life is commonly meant the time needed for the level to fall by half in the phase considered. In the case of `COc1cc2c3cc1Oc1c(OC)c(OC)cc4c1[C@@H](Cc1ccc(O)c(c1)Oc1ccc(cc1)C[C@@H]3N(C)CC2)N(C)CC4` [berbamine], in the series with histamine-induced itch, the “effect on total scratching bouts induced by histamine” value is reported as “no significant effect”. Also, the “effect on total scratching bouts induced by DCA” value with DCA-induced itch is recorded as “no significant effect”. The IC50 in series [1] was 0.603 ± 0.047 µM; on MrgprX1 (pretreated 10 min prior to 300 μM CQ, read-out: IC50 of inhibition of CQ-induced MrgprX1 activation), 1.6 µM; in series [3], 0.359 ± 0.009 µM. For the same compound, the “activation of MrgprX1 by the compound itself” value at MrgprX1 (30 μM berbamine (Figure S1)) is reported as “did not activate MrgprX1 by itself”. The “mode of inhibition of the activation of MrgprX1 by CQ” value on MrgprX1 (30 μM berbamine, CQ dose response (Figure S3)) was “competitive inhibitory effect”. At MrgprX1 (10 min pretreatment, 500 nM BAM8-22 (Figure S2)), the “inhibition of MrgprX1 activation by BAM8-22” value was “did not potently inhibit”. Also, the inhibition at 30 µM on MrgprX1 (HEK-293T, 30 μM test compound for 10 min, then 300 μM CQ, read-out: inhibition of the CQ-induced activation of MrgprX1 (screening)) was greater than 90%. The “effect on DCA-induced activation of TGR5” value on TGR5 is given as “did not alter”. The “attenuation of CQ-induced pruritus (total scratching bouts)” value with CQ-induced pruritus was 80% and ~ 80%. Also, in series [2], the half-life is on record as 39.25 h. Further, the “effect on CQ-induced ERK1/2 phosphorylation” value in [4] is on record as “significantly reduced”.

Source of the values: PMC9698483, “Berbamine Reduces Chloroquine-Induced Itch in Mice through Inhibition of MrgprX1” (International Journal of Molecular Sciences, 2022).
